Source: US8343977B2, “Substituted triazolo-pyrimidine compounds” (ArQule, Inc., priority 2009, dated 2013)

How the values were obtained:
[1] = target: T1, Tec kinase (Homo sapiens, UniProt P42680); assay: Tec Kinase Activity Assay; type: biochemical; details: test concentration not given
T1 sequence (P42680 1-631): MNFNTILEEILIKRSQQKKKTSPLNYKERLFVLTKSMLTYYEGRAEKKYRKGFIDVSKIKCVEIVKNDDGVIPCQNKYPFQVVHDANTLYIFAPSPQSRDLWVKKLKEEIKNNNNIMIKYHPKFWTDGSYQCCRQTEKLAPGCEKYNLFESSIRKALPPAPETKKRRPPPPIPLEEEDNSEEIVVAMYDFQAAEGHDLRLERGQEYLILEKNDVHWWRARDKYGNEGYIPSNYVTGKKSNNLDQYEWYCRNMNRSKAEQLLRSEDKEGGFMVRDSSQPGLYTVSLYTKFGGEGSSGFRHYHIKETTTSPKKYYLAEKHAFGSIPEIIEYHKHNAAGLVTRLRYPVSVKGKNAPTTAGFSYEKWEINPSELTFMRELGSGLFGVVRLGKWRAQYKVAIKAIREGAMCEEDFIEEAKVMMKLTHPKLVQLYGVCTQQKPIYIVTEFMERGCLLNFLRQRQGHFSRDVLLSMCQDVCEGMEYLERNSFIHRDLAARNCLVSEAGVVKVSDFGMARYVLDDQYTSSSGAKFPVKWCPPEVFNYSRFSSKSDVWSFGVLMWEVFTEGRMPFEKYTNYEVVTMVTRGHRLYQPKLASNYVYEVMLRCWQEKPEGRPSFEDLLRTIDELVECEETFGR
Procedure: Tec Kinase Activity Assay
(§1) The disclosed compounds were assayed for their ability to inhibit the activity of Tec kinase. Nunc Maxisorb plates were coated with streptavidin by overnight incubation with 100 μL per well of 1 μg/mL Streptavidin in DPBS. Prior to the start of the experiment, the plates were washed with TBST (3×200 μL) and blocked for at least 1 hour by adding 150 μL of 5% BSA/TBST. The plates were washed with TBST (3×200 μL/well) and left dry immediately before the capture step.
The test articles and controls (Staurosporine and Sutent) were prepared using the following assay buffer at 3× desired final concentration (50 mM Tris-HCl, 0.02 mg/mL BSA, 10 mM MgCl2, 0.1 mM Na3VO4, 1 mM EGTA, 75 μM ATP0.01% NP-40, 2 mM DTT in 10% glycerol/water). In a reaction plate were added rapidly 20 μL test article (or control) and 20 μL TEC 0.25 ng/μL. The plate was incubated for 30 minutes. To the reaction plate was added 20 μL of Pyk-2 0.5 ng/μL. The plate was incubated at room temperature for two hours.
(§2) From the reaction plate, 50 μL was transferred to the streptavidin coated plate. The capture plate was incubated at room temperature for 30 minutes then washed 6× with TBST. To the capture plate was added 100 μL/well of Cell Signaling anti-phospho tyrosine at a dilution of 1:3000 in 2% BSA/TBST. The plate was incubated for one hour at room temperature then washed 6× with TBST. To the capture plate was added 100 μL/well of Alkaline Phosphatase Tagged Goat anti Mouse Antibody at a dilution of 1:4000 in 2% BSA/TBST. The plate was incubated for one hour at room temperature then washed 6× with TBST. The fluorescent readout was initiated by the addition of 100 μL/well of Attophos reagent (6 mg/10 mL). The reading was done on the Perkin Elmer Envision system.

[2] = target: RET kinase (Homo sapiens, UniProt P07949); assay: RET Kinase Activity Assay; type: biochemical; details: test concentration not given
Procedure: RET Kinase Activity Assay
as §1, with “RET” for “Tec”, “Maxwasorb” for “Maxisorb”
The test articles and controls (Staurosporine and Sutent) were prepared using the following assay buffer at 3× desired final concentration (50 mM […], 0.02 mg/mL BSA, 10 mM MgCl2, 0.1 mM Na3VO4, 1 mM EGTA, 75 μM ATP0.01% NP-40, 2 mM DTT in 10% glycerol/water). In a reaction plate, were added rapidly 20 μL test article (or control) and 20 μL RET (0.25 ng/μL final concentration). The plate was incubated for 15 minutes. To the reaction plate was added 20 μL of Pyk-2 (0.25 ng/μL final concentration). The plate was incubated at room temperature for one hour.
as §2, with “Envwasion” for “Envision”

[3] = system: DLD-1 cancer cells; assay: MTS Assay; type: cell-based; details: Homo sapiens, DLD-1 cells, 72 h
Procedure: Cells were maintained at 37° C., 5% CO2 in DMEM media supplemented with 1% fetal bovine serum, penicillin/streptomycin and fungizone (Invitrogen). Cells were seeded into 96-well tissue culture plates at 3000 per well and cultured at 37° C. for 18 hours. Test compounds were dissolved and diluted to 300× in DMSO then diluted 1:40 in DMEM. Cells were incubated with test compounds for 72 hours followed by incubation with tetrazolium compound (3-(4,5-dimethylthiazol-2-yl)-5-(3-carboxymethoxyphenyl)-2-(4-sulfophenyl)-2H-tetrazolium, inner salt; MTS) and the electron coupling reagent, phenazine methosulfate (PMS) for 4 hours. […] The ability of compounds to inhibit cell growth in this assay is correlated with the reduction of dehydrogenase enzyme activity found in metabolically active cells. The measurement of the absorbance of the formazan was assessed using a Victor (Perkin Elmer) microplate reader at 492 nm. The calculated IC50 value is the concentration of the test compound that causes a 50% decrease in the absorbance.

Sequence of RET kinase (P07949 29-1114): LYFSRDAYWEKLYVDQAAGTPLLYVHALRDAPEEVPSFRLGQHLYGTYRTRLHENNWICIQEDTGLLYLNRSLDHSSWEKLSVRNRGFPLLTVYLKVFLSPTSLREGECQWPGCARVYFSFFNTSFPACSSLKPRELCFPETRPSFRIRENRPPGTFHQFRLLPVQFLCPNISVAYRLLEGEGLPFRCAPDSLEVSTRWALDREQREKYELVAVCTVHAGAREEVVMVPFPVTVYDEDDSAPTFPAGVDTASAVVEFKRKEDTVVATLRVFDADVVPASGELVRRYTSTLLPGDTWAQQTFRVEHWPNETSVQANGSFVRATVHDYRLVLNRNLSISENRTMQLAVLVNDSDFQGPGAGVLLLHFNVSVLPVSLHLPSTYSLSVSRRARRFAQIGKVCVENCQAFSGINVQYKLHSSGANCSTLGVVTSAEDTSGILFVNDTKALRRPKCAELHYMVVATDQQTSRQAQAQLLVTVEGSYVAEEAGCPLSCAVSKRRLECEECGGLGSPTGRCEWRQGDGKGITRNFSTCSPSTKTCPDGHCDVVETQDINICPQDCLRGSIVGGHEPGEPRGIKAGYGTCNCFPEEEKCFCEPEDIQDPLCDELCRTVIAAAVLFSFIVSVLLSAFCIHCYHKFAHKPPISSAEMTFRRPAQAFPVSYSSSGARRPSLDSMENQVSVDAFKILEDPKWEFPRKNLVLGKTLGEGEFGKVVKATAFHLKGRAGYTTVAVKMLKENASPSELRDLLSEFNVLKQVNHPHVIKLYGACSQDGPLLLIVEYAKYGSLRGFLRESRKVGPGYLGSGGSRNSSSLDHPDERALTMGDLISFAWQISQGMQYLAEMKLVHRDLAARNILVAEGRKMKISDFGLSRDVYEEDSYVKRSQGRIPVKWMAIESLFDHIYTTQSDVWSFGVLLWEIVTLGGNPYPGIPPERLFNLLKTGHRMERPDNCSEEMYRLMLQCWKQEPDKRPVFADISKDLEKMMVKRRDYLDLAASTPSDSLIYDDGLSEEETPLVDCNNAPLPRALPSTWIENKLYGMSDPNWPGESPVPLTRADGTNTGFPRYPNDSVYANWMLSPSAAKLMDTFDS

Compound	Kinase Activity (Tec kinase inhibition) [1]	Kinase Activity (RET kinase inhibition) [2]	inhibition at 10 µM [3] [%]
Brc1cnc2nnc(-c3ccc(-c4cccnc4)cc3)n2c1 [Compound 2, 6-bromo-3-(4-(pyridin-3-yl)phenyl)-[1,2,4]triazolo[4,3-a]pyrimidine]	B (B indicates 50-75% inhibition)		
c1ccc(Oc2ccc(-c3cnc4nnc(-c5ccncc5)n4c3)cc2)cc1 [Compound 6, 6-(4-phenoxyphenyl)-3-(pyridin-4-yl)-[1,2,4]triazolo[4,3-a]pyrimidine]	A (A indicates 75-100% inhibition)	A (A indicates 75-100% inhibition)	
CS(=O)(=O)c1ccc(-c2nnc3ncc(-c4ccc(Oc5ccccc5)cc4)cn23)cc1 [Compound 7, 3-(4-(methylsulfonyl)phenyl)-6-(4-phenoxyphenyl)-[1,2,4]triazolo[4,3-a]pyrimidine]	A (A indicates 75-100% inhibition)	A (A indicates 75-100% inhibition)	98
COc1ccc(-c2cnc3nnc(-c4ccc(CC(C)C)cc4)n3c2)cc1 [Compound 8, 3-(4-isobutylphenyl)-6-(4-methoxyphenyl)-[1,2,4]triazolo[4,3-a]pyrimidine]	B (B indicates 50-75% inhibition)		74
CC(C)(C)c1ccc(-c2cnc3nnc(-c4ccc(C#N)cc4)n3c2)cc1 [Compound 9, 4-(6-(4-tert-butylphenyl)-[1,2,4]triazolo[4,3-a]pyrimidin-3-yl)benzonitrile]	B (B indicates 50-75% inhibition)	A (A indicates 75-100% inhibition)	39
Cc1ccc(-c2cnc3nnc(-c4ccc(S(C)(=O)=O)cc4)n3c2)c2ccccc12 [Compound 10, 6-(4-methylnaphthalen-1-yl)-3-(4-(methylsulfonyl)phenyl)-[1,2,4]triazolo[4,3-a]pyrimidine]		A (A indicates 75-100% inhibition)	

Continued, in another order:

Kinase Activity (Tec kinase inhibition) [1]	Kinase Activity (RET kinase inhibition) [2]	Compound	inhibition at 10 µM [3] [%]
A (A indicates 75-100% inhibition)		Brc1cnc2nnc(-c3ccccc3)n2c1 [Compound 1, 6-bromo-3-phenyl-[1,2,4]triazolo[4,3-a]pyrimidine]	
A (A indicates 75-100% inhibition)	A (A indicates 75-100% inhibition)	c1ccc(-c2nnc3ncc(-c4cccc5[nH]ccc45)cn23)cc1 [Compound 3, 6-(1H-indol-4-yl)-3-phenyl-[1,2,4]triazolo[4,3-a]pyrimidine]	98
	A (A indicates 75-100% inhibition)	c1cc(-c2cnc3nnc(-c4ccncc4)n3c2)c2cc[nH]c2c1 [Compound 4, 6-(1H-indol-4-yl)-3-(pyridin-4-yl)-[1,2,4]triazolo[4,3-a]pyrimidine]	
B (B indicates 50-75% inhibition)	B (B indicates 50-75% inhibition)	c1ccc(Oc2ccccc2-c2cnc3nnc(-c4ccncc4)n3c2)cc1 [Compound 5, 6-(2-phenoxyphenyl)-3-(pyridin-4-yl)-[1,2,4]triazolo[4,3-a]pyrimidine]	13
	A (A indicates 75-100% inhibition)	CS(=O)(=O)c1ccc(-c2nnc3ncc(-c4ccccc4Oc4ccccc4)cn23)cc1 [Compound 11, 3-(4-(methylsulfonyl)phenyl)-6-(2-phenoxyphenyl)-[1,2,4]triazolo[4,3-a]pyrimidine]	
